Assay results from patent US20090093460A1, “Compositions” (AstraZeneca AB, priority 2003, published 2009).
Where two headings read alike, the source gives them in different places.

Tests used:
Brain exposure in rats = type: in vivo; conditions: rat; for Kp at 1 h: brain
Description: Brain exposure was measured in rats. For concentrations of 11-piperazin-1-yldibenzo[b,f][1,4]thiazepine in brain, rats were dosed either po or iv (n=3 per dose route). At one hour after compound administration blood and brain samples were obtained and then processed for analysis using HPLC/MS to measure concentrations of 11-piperazin-1-yldibenzo[b,f][ 1,4]thiazepine.

Adrenergic α2B = target: T1, Adrenergic α2B (Homo sapiens, UniProt P18089); experiment: Radioligand binding Adrenergic α2B
T1 sequence (P18089 1-450): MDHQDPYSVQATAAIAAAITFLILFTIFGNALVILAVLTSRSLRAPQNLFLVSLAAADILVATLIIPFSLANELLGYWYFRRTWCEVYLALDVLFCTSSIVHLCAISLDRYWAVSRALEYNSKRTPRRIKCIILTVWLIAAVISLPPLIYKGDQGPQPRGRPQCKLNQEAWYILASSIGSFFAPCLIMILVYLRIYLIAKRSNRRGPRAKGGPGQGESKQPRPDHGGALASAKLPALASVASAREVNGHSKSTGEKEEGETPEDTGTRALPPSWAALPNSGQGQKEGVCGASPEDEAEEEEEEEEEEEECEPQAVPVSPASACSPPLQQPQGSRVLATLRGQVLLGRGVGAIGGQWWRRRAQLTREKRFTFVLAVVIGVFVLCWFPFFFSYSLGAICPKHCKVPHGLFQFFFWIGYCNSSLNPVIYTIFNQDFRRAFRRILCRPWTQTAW

5HT Transporter = target: T2, 5HT Transporter (Homo sapiens, UniProt P31645); experiment: PET scans of primate subjects, 5HT Transporter occupancy; type: in vivo; conditions: preliminary PET scans
T2 construct: from tissue; host or cells: brain of living primate subjects (PET)
Source text: (§1) The compound of Formula I is a dibenzothiazepine that has shown antidopaminergic activity.

mice = experiment: Standard apomorphine climbing mouse assay; type: in vivo; conditions: p.o.
Source text: (§2) The methods and procedures used can be found in Warawa et al., J. Med. Chem., 2001, 44 (3), 372-389, and are incorporated herein by reference.

[1] = target: Adrenergic α2* Non-Selective; experiment: Radioligand binding 203900 Adrenergic α2* Non-Selective; design: species or system rat
Source text: Receptor binding methods, α-adrenergic nonselective, are provided below.

Adrenergic α1A = target: T3, Adrenergic α1A (Rattus norvegicus, UniProt P43140); experiment: Radioligand binding 203100 Adrenergic α1A
T3 construct: 203100
T3 sequence (P43140 1-466): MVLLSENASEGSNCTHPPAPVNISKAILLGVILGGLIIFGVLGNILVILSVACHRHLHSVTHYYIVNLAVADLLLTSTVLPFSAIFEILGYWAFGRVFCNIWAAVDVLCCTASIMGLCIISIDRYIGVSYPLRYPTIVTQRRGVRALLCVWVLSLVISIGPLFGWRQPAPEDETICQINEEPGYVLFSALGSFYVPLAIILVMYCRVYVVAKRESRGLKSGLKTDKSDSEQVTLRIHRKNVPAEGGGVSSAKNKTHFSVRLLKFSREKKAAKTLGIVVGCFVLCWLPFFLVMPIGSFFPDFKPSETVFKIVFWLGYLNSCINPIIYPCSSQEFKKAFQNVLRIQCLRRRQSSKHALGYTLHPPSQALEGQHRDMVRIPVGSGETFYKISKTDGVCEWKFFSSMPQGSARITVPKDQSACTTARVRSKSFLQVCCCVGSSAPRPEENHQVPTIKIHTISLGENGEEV
Source text: (§3) Receptor binding methods, (α-adrenergic subtype specific, are provided below.

H1 receptor = H1 receptor (Homo sapiens, UniProt P35367); experiment: H1 receptor binding
Description: The H1 receptor binding method was carried out in accordance with the method set out in De Backer M D et al. Biochem. Biophys. Res Commun. 197 (3); 1601, 1993.

Adrenergic α1B = target: T4, Adrenergic α1B (Rattus norvegicus, UniProt P15823); experiment: Radioligand binding 203200 Adrenergic α1B
T4 construct: 203200
T4 sequence (P15823 1-515): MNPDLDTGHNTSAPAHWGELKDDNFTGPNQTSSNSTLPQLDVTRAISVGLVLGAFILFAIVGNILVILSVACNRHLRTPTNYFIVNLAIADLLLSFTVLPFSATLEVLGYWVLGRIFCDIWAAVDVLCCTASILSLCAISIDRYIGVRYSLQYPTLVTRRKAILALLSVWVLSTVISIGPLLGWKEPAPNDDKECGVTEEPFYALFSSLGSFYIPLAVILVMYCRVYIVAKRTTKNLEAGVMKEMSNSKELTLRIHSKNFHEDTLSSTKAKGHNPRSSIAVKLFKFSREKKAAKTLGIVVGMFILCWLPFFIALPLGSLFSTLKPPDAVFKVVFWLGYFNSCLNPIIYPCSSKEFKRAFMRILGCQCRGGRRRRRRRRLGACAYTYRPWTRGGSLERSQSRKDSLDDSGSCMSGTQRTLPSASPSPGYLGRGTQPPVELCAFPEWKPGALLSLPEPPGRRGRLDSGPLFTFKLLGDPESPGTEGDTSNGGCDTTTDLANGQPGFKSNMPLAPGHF
Source text: as §3

[2] = PET scans of primate subjects, brain entry; type: in vivo; conditions: preliminary PET scans
Source text: as §1

rats = experiment: D-amphetamine locomotor activity test; type: in vivo, rat; conditions: freebase, s.c.
Source text: as §2

D1 receptors = target: T5, D1 receptors (Homo sapiens, UniProt P21728); experiment: PET scans of primate subjects, D1 occupancy; type: in vivo; conditions: preliminary PET scans
T5 construct: from tissue; host or cells: brain of living primate subjects (PET)
Source text: as §1

T2 sequence (P31645 whole entry, species assumed): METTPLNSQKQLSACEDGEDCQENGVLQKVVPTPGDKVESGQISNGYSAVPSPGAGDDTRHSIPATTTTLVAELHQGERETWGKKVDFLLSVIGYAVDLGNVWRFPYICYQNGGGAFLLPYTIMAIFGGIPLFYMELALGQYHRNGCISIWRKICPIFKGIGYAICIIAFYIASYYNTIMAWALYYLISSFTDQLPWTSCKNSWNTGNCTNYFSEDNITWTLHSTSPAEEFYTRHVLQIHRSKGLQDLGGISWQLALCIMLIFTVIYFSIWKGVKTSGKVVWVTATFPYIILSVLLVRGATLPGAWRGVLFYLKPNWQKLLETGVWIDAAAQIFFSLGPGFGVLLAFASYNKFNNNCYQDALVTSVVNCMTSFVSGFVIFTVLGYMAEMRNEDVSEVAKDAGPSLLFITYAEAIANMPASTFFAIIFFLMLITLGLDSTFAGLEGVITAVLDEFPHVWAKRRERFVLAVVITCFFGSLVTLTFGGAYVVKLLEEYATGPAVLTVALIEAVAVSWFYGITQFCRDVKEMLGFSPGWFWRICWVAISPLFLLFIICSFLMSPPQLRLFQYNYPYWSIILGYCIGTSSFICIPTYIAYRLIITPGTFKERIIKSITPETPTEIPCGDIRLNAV
Sequence of H1 receptor (P35367 whole entry): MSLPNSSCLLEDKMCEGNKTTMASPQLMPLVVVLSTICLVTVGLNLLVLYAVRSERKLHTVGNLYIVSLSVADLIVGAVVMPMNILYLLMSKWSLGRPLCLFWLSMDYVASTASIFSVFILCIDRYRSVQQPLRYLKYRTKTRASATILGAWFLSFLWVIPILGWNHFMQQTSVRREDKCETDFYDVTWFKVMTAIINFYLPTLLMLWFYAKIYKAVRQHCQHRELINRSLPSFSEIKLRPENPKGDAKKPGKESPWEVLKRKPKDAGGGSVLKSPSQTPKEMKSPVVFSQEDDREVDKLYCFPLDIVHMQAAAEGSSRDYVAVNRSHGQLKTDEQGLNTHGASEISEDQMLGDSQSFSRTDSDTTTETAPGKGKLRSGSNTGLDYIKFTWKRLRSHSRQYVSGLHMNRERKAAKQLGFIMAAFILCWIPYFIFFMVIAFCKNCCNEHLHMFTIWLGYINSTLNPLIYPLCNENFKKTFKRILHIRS
T5 sequence (P21728 whole entry): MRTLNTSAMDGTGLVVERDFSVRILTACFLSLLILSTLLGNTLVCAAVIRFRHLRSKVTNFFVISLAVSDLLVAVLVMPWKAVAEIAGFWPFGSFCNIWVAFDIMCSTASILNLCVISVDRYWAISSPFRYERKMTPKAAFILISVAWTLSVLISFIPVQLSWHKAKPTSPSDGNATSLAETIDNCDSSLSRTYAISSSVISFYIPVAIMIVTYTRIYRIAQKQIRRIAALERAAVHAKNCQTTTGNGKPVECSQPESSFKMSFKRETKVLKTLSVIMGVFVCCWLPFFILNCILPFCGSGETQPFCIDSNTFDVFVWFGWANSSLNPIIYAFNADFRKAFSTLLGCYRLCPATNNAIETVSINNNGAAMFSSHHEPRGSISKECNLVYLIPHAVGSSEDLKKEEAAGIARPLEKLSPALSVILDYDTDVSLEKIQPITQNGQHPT

## c1ccc2c(c1)N=C(N1CCNCC1)c1ccccc1S2 [11-piperazin-1-yldibenzo[b,f][1,4]thiazepine]
Brain exposure in rats; 30 umol/kg, one hour after 30 μmol/kg po, read-out: brain/plasma exposure ratio
  Kp at 1 h: 3.4
Brain exposure in rats; after iv dosing, read-out: brain:plasma concentration ratio
  Kp at 1 h: 4.6
Brain exposure in rats; plasma, 30 μmol/kg, heading: average concentration in plasma, one hour after 30 μmol/kg po
  concentration at 1 h: 0.658 µM
Adrenergic α2B
  IC50: 0.451 ± 0.097 µM
  Ki: 0.206 ± 0.0445 µM
  n: 0.902 ± 0.055
Adrenergic α2B; 1 μM
  inhibition at 1 µM: 62%
5HT Transporter
  transporter occupancy by PET: occupies
mice
  in vivo antipsychotic activity: not shown to be efficacious
[1]
  IC50: 1.41 µM
  Ki: 1.29 µM
[1]; 10 μM
  % INH.: 73%
Adrenergic α1A
  IC50: 0.268 ± 0.012 µM
  n: 1.03 ± 0.089
Adrenergic α1A; 0.3 μM
  inhibition at 0.3 µM: 51%
Adrenergic α1A; read-out: ki
  Ki: 0.108 ± 0.005 µM
Adrenergic α1A; α1A, read-out: Affinity
  Ki: 0.108 µM
H1 receptor
  Ki: 0.00115 µM
Adrenergic α1B
  n: 1.1 ± 0.024
Adrenergic α1B; 0.1 μM
  inhibition at 0.1 µM: 50%
Adrenergic α1B; read-out: ki
  Ki: 0.075 ± 0.009 µM
Adrenergic α1B; α1B, read-out: Affinity
  Ki: 0.075 µM
[2]
  brain entry by PET: reaches the brain
rats
  in vivo antipsychotic activity: not found to be efficacious
rats; listed as compound of Formula I
  in vivo antipsychotic activity: not shown to be efficacious
D1 receptors
  receptor occupancy by PET: occupies
